# Laboratory results: PubChem BioAssay AID1963977 (Molecular Pharmacology Branch, DTP, NCI, 2024)
# “And” between values parts separate entries of the source, which are not always exact repeats. Identical values can stand only once.
# Test system: 624824-186-R-J3-PDC multicell spheroids, viability
# Assay: Anticancer human tumor 624824-186-R-J3-PDC patient-derived colon adenocarcinoma cell line growth inhibition [PI3K]
# Settings: for viability, T/C: stronger effect = lower value
# In short: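 Combination activity was assessed by viability in multicellular tumor spheroids carrying HUVEC and MSC components. Agents were tested with PI3K inhibitors from a Cmax-based top dose (or 10 microM) downward in half-log increments.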
# [1] = curve of first compound, second compound 0.0316 µM
# [2] = curve of first compound, second compound 0.1 µM
# [3] = curve of first compound, second compound 0.316 µM
# [4] = curve of first compound, second compound 1 µM
# [5] = curve of first compound, second compound 3.16 µM
# [6] = curve of first compound, second compound 10 µM
# [7] = second compound 0.0316 µM, first compound 0.0316 µM
# [8] = second compound 0.0316 µM, first compound 0.1 µM
# [9] = second compound 0.1 µM, first compound 0.0316 µM
# [10] = second compound 0.1 µM, first compound 0.1 µM
# [11] = second compound 0.316 µM, first compound 0.0316 µM
# [12] = second compound 0.316 µM, first compound 0.1 µM
# [13] = second compound 1 µM, first compound 0.0316 µM
# [14] = second compound 1 µM, first compound 0.1 µM
# [15] = second compound 3.16 µM, first compound 0.0316 µM
# [16] = second compound 3.16 µM, first compound 0.1 µM
# [17] = second compound 10 µM, first compound 0.0316 µM
# [18] = second compound 10 µM, first compound 0.1 µM
# 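Note: spheroids exposed to agents for seven days before luminescence read.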
# 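Throughout, for viability, T/C: luminescent signal used as a stand-in for spheroid viability; percent viability relative to DMSO vehicle control wells taken as 100%.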
smiles,measurement,setting,value
Cn1cnc2c(F)c(Nc3ccc(Br)cc3Cl)c(C(=O)NOCCO)cc21 + CC(Nc1ncnc2nc[nH]c12)c1cc2cccc(Cl)c2c(=O)n1-c1ccccc1,IC50,[1],2.02 µM
same,IC50,[2],1.54 µM
same,IC50,[3],1.68 µM
same,IC50,[4],1.28 µM
same,IC50,[5],0.688 µM
same,IC50,[6],0.297 µM
same,"viability, T/C","second compound 0.0316 µM, first compound 0.00949 µM",102%
same,"viability, T/C","second compound 0.0316 µM, first compound 0.03 µM",87.3%
same,"viability, T/C","second compound 0.0316 µM, first compound 0.0949 µM",103%
same,"viability, T/C","second compound 0.0316 µM, first compound 0.3 µM",74.2%
same,"viability, T/C","second compound 0.0316 µM, first compound 0.949 µM",66.8%
same,"viability, T/C","second compound 0.0316 µM, first compound 3 µM",42.2%
same,"viability, T/C","second compound 0.1 µM, first compound 0.00949 µM",96.5%
same,"viability, T/C","second compound 0.1 µM, first compound 0.03 µM",84.3%
same,"viability, T/C","second compound 0.1 µM, first compound 0.0949 µM",101%
same,"viability, T/C","second compound 0.1 µM, first compound 0.3 µM",80.8%
same,"viability, T/C","second compound 0.1 µM, first compound 0.949 µM",59.8%
same,"viability, T/C","second compound 0.1 µM, first compound 3 µM",37.6%
same,"viability, T/C","second compound 0.316 µM, first compound 0.00949 µM",95.8%
same,"viability, T/C","second compound 0.316 µM, first compound 0.03 µM",98.6%
same,"viability, T/C","second compound 0.316 µM, first compound 0.0949 µM",81.3%
same,"viability, T/C","second compound 0.316 µM, first compound 0.3 µM",86.1%
same,"viability, T/C","second compound 0.316 µM, first compound 0.949 µM",59.2%
same,"viability, T/C","second compound 0.316 µM, first compound 3 µM",38.6%
same,"viability, T/C","second compound 1 µM, first compound 0.00949 µM",97.4%
same,"viability, T/C","second compound 1 µM, first compound 0.03 µM",106%
same,"viability, T/C","second compound 1 µM, first compound 0.0949 µM",87.7%
same,"viability, T/C","second compound 1 µM, first compound 0.3 µM",80.3%
same,"viability, T/C","second compound 1 µM, first compound 0.949 µM",56.4%
same,"viability, T/C","second compound 1 µM, first compound 3 µM",31.5%
same,"viability, T/C","second compound 3.16 µM, first compound 0.00949 µM",91%
same,"viability, T/C","second compound 3.16 µM, first compound 0.03 µM",91.3%
same,"viability, T/C","second compound 3.16 µM, first compound 0.0949 µM",80.7%
same,"viability, T/C","second compound 3.16 µM, first compound 0.3 µM",67.2%
same,"viability, T/C","second compound 3.16 µM, first compound 0.949 µM",43.2%
same,"viability, T/C","second compound 3.16 µM, first compound 3 µM",27.4%
same,"viability, T/C","second compound 10 µM, first compound 0.00949 µM",101%
same,"viability, T/C","second compound 10 µM, first compound 0.03 µM",80.6%
same,"viability, T/C","second compound 10 µM, first compound 0.0949 µM",74.3%
same,"viability, T/C","second compound 10 µM, first compound 0.3 µM",47.4%
same,"viability, T/C","second compound 10 µM, first compound 0.949 µM",31.7%
same,"viability, T/C","second compound 10 µM, first compound 3 µM",18.1%
Cn1ncnc1[C@H]1c2n[nH]c(=O)c3cc(F)cc(c23)N[C@@H]1c1ccc(F)cc1 + Cc1nc(NC(=O)N2CCCC2C(N)=O)sc1-c1ccnc(C(C)(C)C(F)(F)F)c1,IC50,[1],> 0.1 µM
same,IC50,[2],> 0.1 µM
same,IC50,[3],> 0.1 µM
same,IC50,[4],> 0.1 µM
same,IC50,[5],> 0.1 µM
same,IC50,[6],> 0.1 µM
same,"viability, T/C","second compound 0.0316 µM, first compound 0.000316 µM",106%
same,"viability, T/C","second compound 0.0316 µM, first compound 0.001 µM",106%
same,"viability, T/C","second compound 0.0316 µM, first compound 0.00316 µM",101%
same,"viability, T/C","second compound 0.0316 µM, first compound 0.01 µM",108%
same,"viability, T/C",[7],111%
same,"viability, T/C",[8],96.7%
same,"viability, T/C","second compound 0.1 µM, first compound 0.000316 µM",104%
same,"viability, T/C","second compound 0.1 µM, first compound 0.001 µM",108%
same,"viability, T/C","second compound 0.1 µM, first compound 0.00316 µM",111%
same,"viability, T/C","second compound 0.1 µM, first compound 0.01 µM",101%
same,"viability, T/C",[9],101%
same,"viability, T/C",[10],102%
same,"viability, T/C","second compound 0.316 µM, first compound 0.000316 µM",102%
same,"viability, T/C","second compound 0.316 µM, first compound 0.001 µM",115%
same,"viability, T/C","second compound 0.316 µM, first compound 0.00316 µM",102%
same,"viability, T/C","second compound 0.316 µM, first compound 0.01 µM",103%
same,"viability, T/C",[11],105%
same,"viability, T/C",[12],98.8%
same,"viability, T/C","second compound 1 µM, first compound 0.000316 µM",96.6%
same,"viability, T/C","second compound 1 µM, first compound 0.001 µM",106%
same,"viability, T/C","second compound 1 µM, first compound 0.00316 µM",110%
same,"viability, T/C","second compound 1 µM, first compound 0.01 µM",83.9%
same,"viability, T/C",[13],101%
same,"viability, T/C",[14],99%
same,"viability, T/C","second compound 3.16 µM, first compound 0.000316 µM",81%
same,"viability, T/C","second compound 3.16 µM, first compound 0.001 µM",83%
same,"viability, T/C","second compound 3.16 µM, first compound 0.00316 µM",90.8%
same,"viability, T/C","second compound 3.16 µM, first compound 0.01 µM",87%
same,"viability, T/C",[15],91.8%
same,"viability, T/C",[16],83.6%
same,"viability, T/C","second compound 10 µM, first compound 0.000316 µM",70%
same,"viability, T/C","second compound 10 µM, first compound 0.001 µM",74.3%
same,"viability, T/C","second compound 10 µM, first compound 0.00316 µM",70.7%
same,"viability, T/C","second compound 10 µM, first compound 0.01 µM",66.7%
same,"viability, T/C",[17],67.7%
same,"viability, T/C",[18],76.9%
CNC(=O)c1ccc(N2C(=S)N(c3ccc(C#N)c(C(F)(F)F)c3)C(=O)C2(C)C)cc1F,"viability, T/C",compound 0.0316 µM,103% [middle of 4 runs]
same,"viability, T/C",compound 0.1 µM,102% [middle of 4 runs]
same,"viability, T/C",compound 0.316 µM,107% [middle of 4 runs]
same,"viability, T/C",compound 1 µM,104% [middle of 4 runs]
same,"viability, T/C",compound 3.16 µM,106% [middle of 4 runs]
same,"viability, T/C",compound 10 µM,104% [middle of 4 runs]
same,IC50,curve of compound,> 10 µM
C[C@@H](NC(=O)c1ncnc(N)c1Cl)c1ncc(C(=O)Nc2cc(C(F)(F)F)c(Cl)cn2)s1,"viability, T/C",compound 0.0316 µM,103% and 100% and 120%
same,"viability, T/C",compound 0.1 µM,96.1% and 93.2% (2×)
same,"viability, T/C",compound 0.316 µM,99.7% and 104% and 102%
same,"viability, T/C",compound 1 µM,99.9% and 97.9% and 107%
same,"viability, T/C",compound 3.16 µM,94.9% and 98.1% and 99.8%
same,"viability, T/C",compound 10 µM,89.5% and 97.3% and 104%
same,IC50,curve of compound,> 10 µM
CC1(C)CCC(Nc2ncc(C(F)(F)F)c(-c3c[nH]c4c(P(C)(C)=O)c(C#N)ccc34)n2)CN1 (stereo not given) + Cc1nc(NC(=O)N2CCCC2C(N)=O)sc1-c1ccnc(C(C)(C)C(F)(F)F)c1,IC50,[1],5.61 µM
same,IC50,[2],5.42 µM
same,IC50,[3],5.18 µM
same,IC50,[4],4.6 µM
same,IC50,[5],1.83 µM
same,IC50,[6],< 0.0316 µM
same,"viability, T/C",[7],113%
same,"viability, T/C",[8],92%
same,"viability, T/C","second compound 0.0316 µM, first compound 0.316 µM",106%
same,"viability, T/C","second compound 0.0316 µM, first compound 1 µM",101%
same,"viability, T/C","second compound 0.0316 µM, first compound 3.16 µM",95%
same,"viability, T/C","second compound 0.0316 µM, first compound 10 µM",4.64%
same,"viability, T/C",[9],107%
same,"viability, T/C",[10],89.9%
same,"viability, T/C","second compound 0.1 µM, first compound 0.316 µM",110%
same,"viability, T/C","second compound 0.1 µM, first compound 1 µM",102%
same,"viability, T/C","second compound 0.1 µM, first compound 3.16 µM",90.3%
same,"viability, T/C","second compound 0.1 µM, first compound 10 µM",4.24%
same,"viability, T/C",[11],97.5%
same,"viability, T/C",[12],103%
same,"viability, T/C","second compound 0.316 µM, first compound 0.316 µM",88%
same,"viability, T/C","second compound 0.316 µM, first compound 1 µM",92.2%
same,"viability, T/C","second compound 0.316 µM, first compound 3.16 µM",84.5%
same,"viability, T/C","second compound 0.316 µM, first compound 10 µM",4.3%
same,"viability, T/C",[13],76.1%
same,"viability, T/C",[14],75.9%
same,"viability, T/C","second compound 1 µM, first compound 0.316 µM",79.3%
same,"viability, T/C","second compound 1 µM, first compound 1 µM",79.4%
same,"viability, T/C","second compound 1 µM, first compound 3.16 µM",72.3%
same,"viability, T/C","second compound 1 µM, first compound 10 µM",3.52%
same,"viability, T/C",[15],59.1%
same,"viability, T/C",[16],54.3%
same,"viability, T/C","second compound 3.16 µM, first compound 0.316 µM",53.7%
same,"viability, T/C","second compound 3.16 µM, first compound 1 µM",55.3%
same,"viability, T/C","second compound 3.16 µM, first compound 3.16 µM",45.6%
same,"viability, T/C","second compound 3.16 µM, first compound 10 µM",2.38%
same,"viability, T/C",[17],35.5%
same,"viability, T/C",[18],34.1%
same,"viability, T/C","second compound 10 µM, first compound 0.316 µM",36.2%
same,"viability, T/C","second compound 10 µM, first compound 1 µM",34%
same,"viability, T/C","second compound 10 µM, first compound 3.16 µM",39%
same,"viability, T/C","second compound 10 µM, first compound 10 µM",1.61%
